# Test results as given in patent publication US7709223B2, “Method for detecting bacteria with chromogenic substrates for β-D-ribofuranosidase” (priority 2001, dated 2010).
# Counter-ions that a name gives are not always drawn.
# Experiments:
# Type in all cases: cell-based
# E. aerogenes = assay: Hydrolysis on Columbia agar with ferric ammonium citrate; set-up: β-Riboside (hydrolysis): key to the marks not given beside the values
# Description: (§1) The chromogenic β-D-ribofuranoside substrate was added to Columbia agar at a substrate concentration of 300 mg/l. Ferric ammonium citrate was included at 500 mg/l. All ingredients were autoclaved at 116° C. for 20 minutes to ensure sterilisation. Agar plates were then prepared in 90 mm petri dishes. The substrate caused a yellow colouration of the agar.
# (§2) For each strain tested, a bacterial suspension was prepared in sterile deionised water at an inoculum of approximately 1.5×10^8 colony forming units per ml. This was achieved using a densitometer. 1 μl of each bacterial suspension was then inoculated onto each plate using a multipoint inoculator. Strains were inoculated in parallel onto Columbia agar containing ferric ammonium citrate with no substrate (negative control).
# (§3) After 18 hours incubation, strains were examined visually for the presence of colour. Any strains producing a black colouration on substrate containing media but not on the negative control plates were deemed to be hydrolysing the substrate.
# E. coli = assay: as above; set-up: β-Riboside (hydrolysis): key to the marks not given beside the values
# Description: as §1, §2, §3
# K. pneumoniae = assay: as above; set-up: β-Riboside (hydrolysis): key to the marks not given beside the values
# Description: as §1, §2, §3
# Shigella sonnei = assay: as above; set-up: β-Riboside (hydrolysis): key to the marks not given beside the values
# Description: as §1, §2, §3
# Acinetobacter lwoffii = assay: Mixed culture on solid medium with substrate and ferric ion; details: mixed culture with Escherichia coli
# Description: (§4) The limitations of using a substrate which generates a diffusible end product after hydrolysis on a solid medium are known by those skilled in the art. […] For example a culture plate was prepared containing solid medium and the chromogenic enzyme substrate 3′,4′-dihydroxyflavone-4′-β-D-ribofuranoside along with ferric ion. A culture containing roughly equal numbers of Escherichia coli (β-D-ribofuranosidase positive) and Acinetobacter lwoffii (β-D-ribofuranosidase negative) was grown on the medium. […] The A. lwoffii colonies were colourless. It was possible to differentiate the two species even when the colonies were virtually coincident.
# Escherichia coli = assay: as above; details: mixed culture with Acinetobacter lwoffii
# Description: as §4
# Gram negative bacteria = assay: Hydrolysis on Columbia agar with ferric ammonium citrate, strain panel; details: 120 Gram negative bacteria tested
# Description: (§5) The ribofuranoside derivative of dihydroxyflavone was tested with 194 distinct strains of bacteria. The choice of bacteria included a wide range many of which are important pathogens or commensals commonly isolated from pathological samples.
# as §1, §2, §3
# Gram-positive bacteria = assay: as above; details: Gram-positive bacteria tested
# Description: as §5, §1, §2, §3
# [1] = system: Arcanobacterium haemolyticus; assay: Hydrolysis on Columbia agar with ferric ammonium citrate
# Description: as §1, §2, §3
# Bacillus cereus = assay: as above; details: Bacillus cereus NCTC
# Description: as §1, §2, §3
# Enterococcus durans = assay: as above; details: Enterococcus durans NCTC 8307
# Description: as §1, §2, §3
# Enterococcus mundtii = assay: as above; details: Enterococcus mundtii NCTC 12363
# Description: as §1, §2, §3
# [2] = system: Haemolytic streptococcus A; assay: as above
# Description: as §1, §2, §3
# Listeria seerigeri = assay: as above; details: Listeria seerigeri PHLS wild
# Description: as §1, §2, §3
# P. aeruginosa = assay: as above
# Description: as §1, §2, §3
# P. penneri = assay: as above; details: P. penneri PPE 1
# Description: as §1, §2, §3
# P. vulgaris = assay: as above
# Description: as §1, §2, §3
# Shigella genus = assay: as above
# Description: as §1, §2, §3
# Streptococcus agalactiae = assay: as above; details: Streptococcus agalactiae NCTC 8181
# Description: as §1, §2, §3
# Streptococcus gordonii = assay: as above; details: Streptococcus gordonii NCTC 7865
# Description: as §1, §2, §3
# Streptococcus milleri = assay: as above; details: Streptococcus milleri wild
# Description: as §1, §2, §3
# Streptococcus oralis = assay: as above; details: Streptococcus oralis NCTC11427
# Description: as §1, §2, §3
# Streptococcus salivarius = assay: as above; details: Streptococcus salivarius NCTC 8618
# Description: as §1, §2, §3
# [3] = system: Streptococcus vestibularis; assay: as above; details: Streptococcus vestibularis NCTC 12166
# Description: as §1, §2, §3
# Vibrio alcaligenes = assay: as above; details: Vibrio alcaligenes NCTC 12160
# Description: as §1, §2, §3
# Vibrio anguillarum = assay: as above; details: Vibrio anguillarum NCTC 12159
# Description: as §1, §2, §3
# Vibrio vulnificus = assay: as above
# Description: as §1, §2, §3
# Y. enterocolitica = assay: as above
# Description: as §1, §2, §3
# enterococci = assay: as above; details: enterococci (‘faecal streptococci’)
# Description: as §1, §2, §3
structure (smiles),measurement,setting,value
"O=c1cc(-c2ccc(OC3OC(CO)C(O)C3O)c(O)c2)oc2ccccc12 [DHF-riboside, 3′,4′-Dihydroxyflavone-4′-β-D-ribofuranoside sodium salt]",β-Riboside (hydrolysis),E. aerogenes; E. aerogenes EAE 1,++
same,β-Riboside (hydrolysis),E. aerogenes; E. aerogenes NCIMB 10102,++
same,β-Riboside (hydrolysis),E. coli; E. coli ECO 2,++
same,β-Riboside (hydrolysis),E. coli; E. coli ECO 3,++
same,β-Riboside (hydrolysis),E. coli; E. coli ECO 4,++
same,β-Riboside (hydrolysis),E. coli; E. coli ECO 5,++
same,β-Riboside (hydrolysis),E. coli; E. coli ECO 6,++
same,β-Riboside (hydrolysis),E. coli; E. coli ECO 7,++
same,β-Riboside (hydrolysis),E. coli; E. coli ECO 8,++
same,β-Riboside (hydrolysis),E. coli; E. coli ECO 9,++
same,β-Riboside (hydrolysis),E. coli; E. coli ECO 10,++
same,β-Riboside (hydrolysis),E. coli; E. coli ECO 11,++
same,β-Riboside (hydrolysis),E. coli; E. coli ECO 12,++
same,β-Riboside (hydrolysis),E. coli; E. coli NCTC 10418,++
same,β-Riboside (hydrolysis),K. pneumoniae; K. pneumoniae KPN 2,++
same,β-Riboside (hydrolysis),K. pneumoniae; K. pneumoniae KPN 3,++
same,β-Riboside (hydrolysis),K. pneumoniae; K. pneumoniae KPN 4,++
same,β-Riboside (hydrolysis),K. pneumoniae; K. pneumoniae NCTC 10896,++
same,β-Riboside (hydrolysis),Shigella sonnei; Shigella sonnei NCTC 8219,++
same,β-Riboside (hydrolysis),Shigella sonnei; Shigella sonnei NCTC 8574,++
same,β-Riboside (hydrolysis),Shigella sonnei; Shigella sonnei NCTC 8586,++
same,β-Riboside (hydrolysis),Shigella sonnei; Shigella sonnei NCTC 9774,++
same,β-Riboside (hydrolysis),Shigella sonnei; Shigella sonnei NCTC 10352,++
same,Colour of A. lwoffii colonies,Acinetobacter lwoffii,colourless
same,Colour of E. coli colonies,Escherichia coli,intense black colonies
same,Share of strains that hydrolysed the substrate,Gram negative bacteria,68.3%
same,Share of strains active with the substrate,Gram-positive bacteria,30.8%
same,Activity with the substrate,[1]; Arcanobacterium haemolyticum,active
same,β-Ribofuranoside (hydrolysis),[1]; Arcanobacterium haemolyticus NCTC 52,+
same,β-Ribofuranoside (hydrolysis),Bacillus cereus,−
same,β-Ribofuranoside (hydrolysis),Enterococcus durans,−
same,β-Ribofuranoside (hydrolysis),Enterococcus mundtii,+
same,β-Ribofuranoside (hydrolysis),[2]; Reference No. 1,−
same,β-Ribofuranoside (hydrolysis),[2]; Reference No. 2,−
same,β-Ribofuranoside (hydrolysis),[2]; Reference No. 3,−
same,β-Ribofuranoside (hydrolysis),Listeria seerigeri,−
same,β-Riboside (hydrolysis),P. aeruginosa; P. aeruginosa ATCC 10145,+
same,β-Riboside (hydrolysis),P. aeruginosa; P. aeruginosa NCTC 10662,+
same,β-Riboside (hydrolysis),P. penneri,−
same,β-Riboside (hydrolysis),P. vulgaris; P. vulgaris PVU 2,−
same,β-Riboside (hydrolysis),P. vulgaris; P. vulgaris PVU 4,−
same,β-Riboside (hydrolysis),P. vulgaris; P. vulgaris PVU 5,−
same,β-D-ribofuranosidase activity,Shigella genus,uniformly positive
same,β-Ribofuranoside (hydrolysis),Streptococcus agalactiae,−
same,β-Ribofuranoside (hydrolysis),Streptococcus gordonii,−
same,β-Ribofuranoside (hydrolysis),Streptococcus milleri,−
same,β-Ribofuranoside (hydrolysis),Streptococcus oralis,−
same,β-Ribofuranoside (hydrolysis),Streptococcus salivarius,−
same,β-Ribofuranoside (hydrolysis),[3],−
same,β-Riboside (hydrolysis),Vibrio alcaligenes,−
same,β-Riboside (hydrolysis),Vibrio anguillarum,−
same,β-Riboside (hydrolysis),Vibrio vulnificus; Vibrio vulnificus NCTC 11066,−
same,β-Riboside (hydrolysis),Vibrio vulnificus; Vibrio vulnificus NCTC 11067,−
same,β-Riboside (hydrolysis),Y. enterocolitica; Y. enterocolitica NCTC 10460,−
same,β-Riboside (hydrolysis),Y. enterocolitica; Y. enterocolitica NCTC 11176,−
same,β-Riboside (hydrolysis),Y. enterocolitica; Y. enterocolitica NCTC 11177,−
same,β-Riboside (hydrolysis),Y. enterocolitica; Y. enterocolitica NCTC 11600,−
same,Activity with the substrate,enterococci,variable
